In the NIST ThermoML archive (doi:10.1021/je060490w):
Several values for one entry are separate records, joined by “and”; a condition that tells them apart may be missing. Equal values may be shown once.

How the values were obtained:
[1] = xn = mol fraction of the nth substance listed; details: Pendant drop shape
[2] = for surface tension liquid-gas: Pendant drop shape; for mass density: 101.33 kPa, Liquid

Cc1cc(C)cc(C)c1 [1,3,5-trimethylbenzene] + CCOC(C)OCC
[1], x2 = 0
Details	surface tension liquid-gas [mN/m]
298.15 K	28.05
308.15 K	27.21
313.15 K	26.78

Cc1ccc(C)c(C)c1 [1,2,4-trimethylbenzene] + CCOC(C)OCC
[1], x2 = 0
Details	surface tension liquid-gas [mN/m]
298.15 K	29.3
308.15 K	28.24
313.15 K	27.71

COC(C)(C)OC [3,3-dimethyl-2,4-dioxapentane]
[2]
Details	mass density [kg/m3]	surface tension liquid-gas [mN/m]
298.15 K	845.09	21.46
308.15 K	834.41	20.43
313.15 K	828.99	19.91

CCOC(C)OCC [1,1-diethoxyethane] + Cc1cc(C)cc(C)c1
[1]
Details	surface tension liquid-gas [mN/m]
298.15 K, x1 = 0.0491	27.45
298.15 K, x1 = 0.1013	26.91
298.15 K, x1 = 0.1538	26.36
298.15 K, x1 = 0.1996	25.83
298.15 K, x1 = 0.2501	25.34
298.15 K, x1 = 0.3009	24.81
298.15 K, x1 = 0.3501	24.37
298.15 K, x1 = 0.4067	23.83
298.15 K, x1 = 0.4506	23.45
298.15 K, x1 = 0.4997	23.04
298.15 K, x1 = 0.5523	22.62
298.15 K, x1 = 0.601	22.26
298.15 K, x1 = 0.6508	21.92
298.15 K, x1 = 0.7006	21.64
298.15 K, x1 = 0.7507	21.43
298.15 K, x1 = 0.8014	21.2
298.15 K, x1 = 0.851	21.09
298.15 K, x1 = 0.8994	21.02
298.15 K, x1 = 0.9487	20.95
298.15 K, x1 = 1	20.88
308.15 K, x1 = 0.0488	26.55
308.15 K, x1 = 0.1009	25.97
308.15 K, x1 = 0.1495	25.4
308.15 K, x1 = 0.1991	24.86
308.15 K, x1 = 0.2498	24.32
308.15 K, x1 = 0.3014	23.84
308.15 K, x1 = 0.3503	23.35
308.15 K, x1 = 0.4004	22.89
308.15 K, x1 = 0.4508	22.44
308.15 K, x1 = 0.5011	22.03
308.15 K, x1 = 0.5503	21.61
308.15 K, x1 = 0.5979	21.25
308.15 K, x1 = 0.6511	20.9
308.15 K, x1 = 0.6997	20.62
308.15 K, x1 = 0.7503	20.33
308.15 K, x1 = 0.7977	20.15
308.15 K, x1 = 0.8462	20.04
308.15 K, x1 = 0.8993	19.95
308.15 K, x1 = 0.9418	19.93
308.15 K, x1 = 1	19.89
313.15 K, x1 = 0.0487	26.09
313.15 K, x1 = 0.0991	25.49
313.15 K, x1 = 0.1507	24.91
313.15 K, x1 = 0.1999	24.37
313.15 K, x1 = 0.2468	23.86
313.15 K, x1 = 0.3001	23.34
313.15 K, x1 = 0.3501	22.83
313.15 K, x1 = 0.4008	22.38
313.15 K, x1 = 0.4502	21.95
313.15 K, x1 = 0.5	21.54
313.15 K, x1 = 0.5495	21.12
313.15 K, x1 = 0.6005	20.73
313.15 K, x1 = 0.6506	20.4
313.15 K, x1 = 0.7005	20.11
313.15 K, x1 = 0.7514	19.8
313.15 K, x1 = 0.7996	19.63
313.15 K, x1 = 0.8494	19.52
313.15 K, x1 = 0.9003	19.48
313.15 K, x1 = 0.9498	19.44
313.15 K, x1 = 1	19.42

Cc1ccc(C)c(C)c1 [1,2,4-trimethylbenzene] + COC(C)(C)OC
[1], x2 = 0
Details	surface tension liquid-gas [mN/m]
298.15 K	29.3
308.15 K	28.24
313.15 K	27.71

Cc1ccc(C)c(C)c1 [1,2,4-trimethylbenzene]
[2]
Details	mass density [kg/m3]	surface tension liquid-gas
298.15 K	871.71	29.3 mN/m
308.15 K	863.68	28.24 mN/m
313.15 K	859.58	27.67 mN/m and 27.71 mN/m

COC(C)(C)OC [3,3-dimethyl-2,4-dioxapentane] + Cc1ccc(C)c(C)c1
[1]
Details	surface tension liquid-gas [mN/m]
298.15 K, x1 = 0.0523	28.69
298.15 K, x1 = 0.0998	28.17
298.15 K, x1 = 0.1497	27.62
298.15 K, x1 = 0.1996	27.12
298.15 K, x1 = 0.2517	26.6
298.15 K, x1 = 0.3009	26.13
298.15 K, x1 = 0.3494	25.68
298.15 K, x1 = 0.3987	25.24
298.15 K, x1 = 0.4502	24.79
298.15 K, x1 = 0.4994	24.37
298.15 K, x1 = 0.5498	23.95
298.15 K, x1 = 0.5996	23.55
298.15 K, x1 = 0.6508	23.17
298.15 K, x1 = 0.6997	22.82
298.15 K, x1 = 0.7498	22.51
298.15 K, x1 = 0.7992	22.24
298.15 K, x1 = 0.8508	22
298.15 K, x1 = 0.8997	21.79
298.15 K, x1 = 0.9489	21.62
298.15 K, x1 = 1	21.46
308.15 K, x1 = 0.0515	27.59
308.15 K, x1 = 0.0998	27.02
308.15 K, x1 = 0.1499	26.47
308.15 K, x1 = 0.2001	25.95
308.15 K, x1 = 0.2475	25.5
308.15 K, x1 = 0.302	24.97
308.15 K, x1 = 0.3512	24.53
308.15 K, x1 = 0.3995	24.12
308.15 K, x1 = 0.4485	23.66
308.15 K, x1 = 0.4989	23.23
308.15 K, x1 = 0.5542	22.77
308.15 K, x1 = 0.5998	22.4
308.15 K, x1 = 0.6518	22.02
308.15 K, x1 = 0.6987	21.69
308.15 K, x1 = 0.7455	21.44
308.15 K, x1 = 0.7962	21.11
308.15 K, x1 = 0.851	20.86
308.15 K, x1 = 0.8973	20.71
308.15 K, x1 = 0.9456	20.55
308.15 K, x1 = 1	20.43
313.15 K, x1 = 0.0506	27.03
313.15 K, x1 = 0.0996	26.42
313.15 K, x1 = 0.1509	25.86
313.15 K, x1 = 0.1994	25.36
313.15 K, x1 = 0.2511	24.87
313.15 K, x1 = 0.3032	24.38
313.15 K, x1 = 0.3475	23.95
313.15 K, x1 = 0.3981	23.52
313.15 K, x1 = 0.4501	23.07
313.15 K, x1 = 0.5	22.66
313.15 K, x1 = 0.5487	22.25
313.15 K, x1 = 0.5993	21.84
313.15 K, x1 = 0.6504	21.45
313.15 K, x1 = 0.6993	21.12
313.15 K, x1 = 0.7486	20.8
313.15 K, x1 = 0.7987	20.51
313.15 K, x1 = 0.8417	20.31
313.15 K, x1 = 0.8929	20.12
313.15 K, x1 = 0.9487	19.97
313.15 K, x1 = 1	19.91
